Measurements published in patent US20240076380A1, “DEVICE AND METHODS FOR RAPIDLY SCREENING AND TREATING CLINICAL CANCER PATIENTS WITH IMMUNOREGULATORY DRUGS” (Shanghai Lide Biotech Co., Ltd., priority 2022, published 2024).

Columns and labels:
[1] = tested on: metastatic tumor tissue (tumor cells and immune cells) of a patient with ovarian cancer in PVDF capsule tubes; test: IO-FIVE capsule test in nude mice, ovarian cancer patient of Example 3 (CTG cell viability and FACS, day 10); format: in vivo, human; settings: tumor sample after addition of autologous TIL cells (C/T 8)
Excerpt: Experimental Animals, Sample Collection, and Cell Processing were the Same as in Example 1.
The following was collected for cell phenotyping identification: a single cell suspension of patient tumor tissue samples before purification, tumor cells after purification, enriched immune cells (containing CD3+ T cells) eluted from the column, and a cell suspension in which tumor cells after purification and immune cells were mixed in a certain ratio (1.5:1 to 15:1), to yield a final cell count of 0.1 to 0.3 million cells. […]
Cells within the Tubing The basic operational steps were the same as those in Example 1. According to the data analyzed by flow cytometry, the CD45− tumor cells and CD3+ T cells were mixed in a certain ratio (about 1.5:1-15:1). […]
3-21 days after administration (day 10 here), the mice were euthanized, and the PVDF tubes were removed. Cell viability was quantified by the CellTiter-Glo chemiluminescence method, and the relative ratio and basic phenotype of tumor cells and immune cells in PVDF tubes were detected by flow cytometry.
Adjusted to the viability value of the cells in the control vehicle group (as shown in FIG. 9), the proliferation viability of all cells in the drug administration group was calculated, and then the efficacy of the drug to be tested was calculated. […]

[2] = tested on: patient with ovarian cancer; settings: monotherapy
[3] = tested on: peripheral blood and/or bone marrow tumor cells and immune cells of acute myeloid leukemia (AML) patients in PVDF capsule tubes; test: IO-FIVE capsule test in nude mice, three AML patients #128, #129, #131 of Example 6 (CTG cell viability and FACS, day 14); format: in vivo, human
Procedure: Fresh peripheral blood samples and/or bone marrow from three acute myeloid leukemia (AML) patients (in the acute phase) were collected and placed in anticoagulant tubes, and transported to the central laboratory by cold chain (2-8° C.) within a short period of time.
Quality control analysis was performed according to the data obtained by flow cytometry so as to meet the requirement that the ratio of CD8+ T cells was at least more than 0.5% (the required minimum concentration), and the tumor cells (CD45^low/+ SSC-A^mid/hi CD33+/CD38+ cells) and the CD45^high SSC-A^lowCD3+ T lymphocytes were uniformly mixed according to a certain ratio (C/T (CD38+Cancer/CD3+T)=1.5:1 to 15:1), and then filled into PVDF tubes and sealed.
Cell viability as measured by luminescence (CTG method) on day 14: according to the viability value of the cells in the control group (as shown in FIG. 21), the proliferation viability of all the cells in the drug administration group was calculated, and then the efficacy of the drug was calculated.
Flow cytometry detection on day14: the relative ratio of tumor cells and immune cells in PVDF tubes was detected by flow cytometry. The differences between tumor cells and immune cells in the drug group and the control group were compared (as shown in FIG. 22). The results were analyzed by Flowjo software.

[4] = tested on: peripheral blood tumor cells and immune cells of acute myeloid leukemia (AML) patients in PVDF capsule tubes; test: IO-FIVE capsule test in nude mice, two AML patients #123 and #124 of Example 5 (CTG cell viability and FACS, day 14); format: in vivo, human
Procedure: BALB/c Nude mice (available from Jiangsu Jicui Yaokang Biotechnology Co. Ltd.) aged 6-8 weeks were ordered from the supplier and kept in the animal house at SPF level. The animals were adaptively kept for at least 3 days before the start of the experiment.
Fresh peripheral blood samples from two acute myeloid leukemia (AML) patients (in the acute phase of AML) were collected and placed in anticoagulant tubes and transported to the central laboratory by cold chain (2-8° C.) within a short period of time.
The peripheral blood samples of different patients were transferred into the biological safety cabinet. The cells were centrifuged using a gradient centrifugation gel (available from SIGMA) with a density of 1.077 g/mL at room temperature. […] After resuspension in cell culture medium (available from Gibco), the cells were counted. […]
3-21 days after administration (e.g., day 14 here), the mice were euthanized, and the PVDF tubes were removed. Cell viability was quantified by the CellTiter-Glo chemiluminescence method. Changes in the relative ratio and phenotype of tumor cells and immune cells in PVDF tubes were detected by flow cytometry. Bioinformatic changes of tumor cells and immune cells in PVDF capsule tubes of clinical samples at day 0 or day 10 were detected by molecular biological methods (RNA sequencing, and DNA sequencing technology, etc.). […]

Molecule: NC(=O)c1cccc2cn(-c3ccc([C@@H]4CCCNC4)cc3)nc12 [PARP inhibitor, Niraparib]
- viability of total cells / overall tumor viability (CTG) [1]: neither PD1 antibody nor PARP inhibitor mono-therapy could inhibit the overall tumor viability
- clinical response of the patient [2]: poor clinical response

Molecule: Daratumumab [CD38 antibody]
- proportion of cancer blasts in the capsules (FACS) ([3]; patient #128): cancer blasts still occupied a dominant proportion in the capsules
- proportion of cancer blasts in the capsules (FACS) ([3]; patient #129): cancer blasts still occupied a dominant proportion in the capsules
- AML blasts and CD8+ TILs (FACS) ([3]; patient #131): less AML blasts and more CD8+ TILs
- response (cell viability, CTG) ([3]; patient #131, C/T 4.5): positive response
- response (cell viability by CTG, FACS) ([4]; patient #123, C/T about 15:1, CD8+ T 0.21%): did not respond
- response / inhibitory effect on cell viability (CTG) compared with control vehicle ([4]; patient #124, C/T about 6:1): great response
